Data taken from publication PMC12865225 (Clinical and Translational Science, 2026).
Marks after values point to notes of the source that are not given here.

What was measured:
OAT3 = molecular target: T1, OAT3 (Homo sapiens, UniProt Q8TCC7); test: OAT3 inhibition with 30 min preincubation, fluorescein
T1 sequence (Q8TCC7 1-542): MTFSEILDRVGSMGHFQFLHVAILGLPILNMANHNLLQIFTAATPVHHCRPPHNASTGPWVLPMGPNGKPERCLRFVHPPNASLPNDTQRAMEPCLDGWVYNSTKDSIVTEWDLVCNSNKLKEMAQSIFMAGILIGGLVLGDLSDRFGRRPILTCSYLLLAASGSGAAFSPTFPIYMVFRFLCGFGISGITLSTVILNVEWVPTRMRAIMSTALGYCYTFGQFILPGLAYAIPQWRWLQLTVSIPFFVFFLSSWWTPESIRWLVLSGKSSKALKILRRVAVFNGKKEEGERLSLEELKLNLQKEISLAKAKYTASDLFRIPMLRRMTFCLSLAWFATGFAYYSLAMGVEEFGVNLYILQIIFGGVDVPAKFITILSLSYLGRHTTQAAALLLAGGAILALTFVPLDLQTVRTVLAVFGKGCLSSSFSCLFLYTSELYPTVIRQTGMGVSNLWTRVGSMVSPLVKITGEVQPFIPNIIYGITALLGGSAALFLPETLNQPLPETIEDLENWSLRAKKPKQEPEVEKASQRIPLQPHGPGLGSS
Protocol: In the OATP inhibition assays, inhibitors in warm TP‐buffer were directly applied to cells after media removal, followed by a 30‐min preincubation step in the presence of inhibitors. No preincubation step was included in the OAT inhibition assays. The inhibition assays were conducted as described above, except that inhibitors were included in the substrate solution. The rosuvastatin concentration was 2.5 μM in the OATP inhibition assays, and the transport assays were conducted for 2 min [24]. For the inhibition studies of OAT1 and OAT3, 5 μM fluorescein was assayed within 5 min, while 34 nM methotrexate within a 10 min assay was employed as the substrate for OAT2 and OAT4 [25, 26, 27, 28]. OAT1 and OAT3 cells were lysed with 200 μL of 1 M sodium hydroxide for 10 min, and 150 μL of these samples were transferred to a black well plate for fluorescein quantification. OAT2 and OAT4 cells were lysed with 200 μL of 0.1% Triton‐X100 for 10 min, and 150 μL of the samples were mixed with 4 mL of scintillation cocktail (Opti‐Fluor from PerkinElmer, Waltham, MA, USA). Each inhibition assay included a vehicle control without an inhibitor.
Cells were pre-incubated with the inhibitors and
vehicle for 30 min before the assay was initiated with fresh solutions of inhibitors and substrate.
The uptake into control cells was subtracted from the uptak e into OAT3-expressing cells for […]

BCRP = molecular target: T2, BCRP (Homo sapiens, UniProt Q9UNQ0); test: BCRP inhibition, rosuvastatin transport in HEK293 membrane vesicles; assay type: biochemical; details: R = I gut/IC50, FDA cut-off ≥ 10
T2 construct: made in house; host or cells: membrane vesicles from HEK293 cells expressing the transporter
T2 sequence (Q9UNQ0 1-655): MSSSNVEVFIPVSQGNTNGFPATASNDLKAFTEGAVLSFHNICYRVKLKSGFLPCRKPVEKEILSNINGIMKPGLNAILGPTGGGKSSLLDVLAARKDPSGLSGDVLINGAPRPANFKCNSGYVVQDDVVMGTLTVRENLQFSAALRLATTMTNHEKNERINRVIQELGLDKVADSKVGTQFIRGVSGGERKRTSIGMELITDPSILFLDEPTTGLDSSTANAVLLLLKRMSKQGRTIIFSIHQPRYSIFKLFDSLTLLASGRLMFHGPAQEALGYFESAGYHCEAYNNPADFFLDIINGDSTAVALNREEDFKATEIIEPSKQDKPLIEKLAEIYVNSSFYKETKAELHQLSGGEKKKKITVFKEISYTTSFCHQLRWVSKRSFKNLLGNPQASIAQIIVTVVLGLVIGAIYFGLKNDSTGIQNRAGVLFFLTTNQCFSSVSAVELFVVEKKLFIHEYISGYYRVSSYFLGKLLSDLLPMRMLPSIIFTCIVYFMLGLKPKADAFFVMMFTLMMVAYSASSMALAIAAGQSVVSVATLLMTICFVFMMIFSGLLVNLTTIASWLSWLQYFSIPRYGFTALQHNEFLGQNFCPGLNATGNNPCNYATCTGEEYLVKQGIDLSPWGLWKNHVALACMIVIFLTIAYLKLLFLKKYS
Protocol: Membrane vesicles, 5 μL (7.5 μg of total protein), prepared as previously reported, were aliquoted to wells of a conical‐shaped 96‐well plate. The plate was incubated for 10 min at +37°C before the initiation of transport by adding 25 μL of TS‐buffer (10 mM Tris, 250 mM sucrose, pH adjusted to 7.4 with HEPES) containing magnesium chloride (10 mM final in the reaction), adenosine triphosphate (ATP) or adenosine monophosphate (AMP), 4 mM final in the reaction, and the transporter substrate and inhibitor. Each experiment included triplicate samples for both ATP and AMP samples. The concentrations of rosuvastatin and N‐methyl‐quinidine were 1 μM in the BCRP and P‐gp vesicle inhibition assays, respectively. The transport reaction times were 1 and 2 min for BCRP and P‐gp, respectively. […] The transport reactions were quenched by adding 200 μL of cold TS‐buffer to each well and transferring the samples to a 96‐multiwell 1.0 μm glass fiber filter plate (Merck Millipore, Darmstadt, Germany) kept under vacuum. […]
For the inhibition data analysis, the average of measured concentrations in the control cells was subtracted from the average of measured concentrations in transporter‐expressing cells for each inhibitor concentration and then normalized to the vehicle sample that represents 100% transport activity. […]

## Cc1onc(-c2c(F)cccc2Cl)c1C(=O)N[C@@H]1C(=O)N2[C@@H]1SC(C)(C)[C@@H]2C(=O)O [Flucloxacillin]
OAT3
  IC50: 30.1 µM
BCRP
  Calculated R-value BCRP: 23 ^b

## Cc1onc(-c2c(Cl)cccc2Cl)c1C(=O)N[C@@H]1C(=O)N2[C@@H]1SC(C)(C)[C@@H]2C(=O)O [Dicloxacillin]
OAT3
  IC50: 18.3 µM
BCRP
  Calculated R-value BCRP: 51 ^b
